These are literature values, as cited in patent US7026301B2, “Method of orally treating inflammatory skin conditions with prodrugs of 5-fluorouracil” (New York University, priority 2002, dated 2006).

The conditions of series [1]: treated patients; for patients in whom hand-foot syndrome occurred: any grade.
For series [2] the following is noted: humans.
For series [3], the target named is T1, dihydropyrimidine dehydrogenase (DPD) (Homo sapiens, UniProt Q12882).
T1 construct: host or cells: endogenous enzyme of patients (in vivo)
T1 sequence (Q12882 4-1025): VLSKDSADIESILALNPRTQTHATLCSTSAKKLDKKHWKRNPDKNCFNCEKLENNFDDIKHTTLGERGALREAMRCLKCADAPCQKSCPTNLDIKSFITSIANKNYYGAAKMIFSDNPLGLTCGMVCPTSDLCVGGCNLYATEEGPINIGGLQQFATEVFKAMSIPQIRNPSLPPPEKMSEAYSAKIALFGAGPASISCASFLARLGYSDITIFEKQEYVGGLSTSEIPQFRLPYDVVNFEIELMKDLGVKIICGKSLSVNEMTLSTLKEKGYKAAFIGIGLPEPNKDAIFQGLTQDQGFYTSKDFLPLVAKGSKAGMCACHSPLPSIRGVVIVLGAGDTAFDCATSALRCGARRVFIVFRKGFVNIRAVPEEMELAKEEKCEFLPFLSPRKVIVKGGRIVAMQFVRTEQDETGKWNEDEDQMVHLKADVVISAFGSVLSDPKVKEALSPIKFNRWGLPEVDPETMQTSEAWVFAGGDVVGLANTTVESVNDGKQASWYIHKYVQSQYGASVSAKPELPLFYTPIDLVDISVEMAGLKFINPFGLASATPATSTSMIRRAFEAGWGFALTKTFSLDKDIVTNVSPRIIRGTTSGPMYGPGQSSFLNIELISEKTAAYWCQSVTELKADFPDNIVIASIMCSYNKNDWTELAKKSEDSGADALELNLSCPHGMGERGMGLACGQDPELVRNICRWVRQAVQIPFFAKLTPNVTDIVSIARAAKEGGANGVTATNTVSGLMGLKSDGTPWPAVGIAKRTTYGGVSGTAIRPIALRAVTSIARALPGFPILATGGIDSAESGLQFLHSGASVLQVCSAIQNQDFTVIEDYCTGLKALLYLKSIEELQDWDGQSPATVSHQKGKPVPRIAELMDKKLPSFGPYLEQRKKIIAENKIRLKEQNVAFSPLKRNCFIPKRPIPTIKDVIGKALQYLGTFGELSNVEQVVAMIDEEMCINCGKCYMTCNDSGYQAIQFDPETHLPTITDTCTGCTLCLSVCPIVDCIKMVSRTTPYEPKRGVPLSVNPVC

With `CCCCCOC(=O)Nc1nc(=O)n([C@@H]2O[C@H](C)[C@@H](O)[C@H]2O)cc1F` [capecitabine, N^4-pentyloxycarbonyl-5′-deoxy-5-fuorocytidine], in series [1], the “patients in whom hand-foot syndrome occurred” value was 53% and the “patients with the most severe form (grade 3) of hand-foot syndrome” value is 17%. Also, in series [2], the oral absorption result is “rapidly and almost completely absorbed”.

Turning to `O=c1[nH]cc(F)c(=O)[nH]1` [5-FU, 5-fluorouracil], the “share of the injected dose deactivated by DPD” value in series [3] is reported as “more than 85%”.

Take 5-FU/leucovorin: in series [1], the “patients in whom hand-foot syndrome occurred” value is 6% and the “patients with the most severe form (grade 3) of hand-foot syndrome” value is listed as 1%.
